Counter-ions that a name gives are not always drawn. Like-named read-outs stand apart in the source and are kept apart here.
Columns and labels:
stability = format: physicochemical
hygroscopicity = format: physicochemical
solubility [1] = format: physicochemical; conditions: for solubility: water
Experimental: The potassium salt of fredericamycin A (NSC #601617) is soluble in water with hand shaking for 1 minute, followed by vortexing for 3 minutes. The solubility is about 1.0 mg/ml and gives a transparent blue solution, pH 8.65 with no residue upon membrane filtration (0.22μ, HA, Millipore Products).
Fredericamycin A (15 mg, 0.0278 mmols) is treated with NaOH solution, 1:3 mols (7.65 mls; 0.0109N, degased previously and cooled to 0° C.) in pyridine solution at 0° C. (2.5 ml, degased) under N2 atmosphere. Reaction is carried out by stirring magnetically for 60 minutes under N2 atmosphere. (40 minutes at 0° C. and 20 minutes at 15° C.). The progress of reaction is followed by TLC, HPLC (of hydrolysed product of the Rx mixture) and UV. The resultant blue-green clear reaction mixture is frozen (-70° C.) and lyophilized (48 hrs) until a solid is obtained. […] It is soluble in water (0.5 mg/ml) with hand shake and sonication (15 minutes). […] TLC and HPLC (after hydrolysis) show single spot and single peak respectively showing that the product is pure.
The first indication of the salt formation is observed by solubility studies in water.

pH of aqueous solution = format: physicochemical
Lewis lung carcinoma = conditions: in vivo; cited from earlier work
LX-1 lung xenograft = conditions: in vivo; cited from earlier work
Gram-negative bacteria = conditions: cited from earlier work
C38 colon tumor = conditions: in vivo; cited from earlier work
B16 melanoma = conditions: in vivo; cited from earlier work
P388 Lymph. Leukemia = assay: in vivo antitumor activity against P388 leukemia; parameters: species or system CD2F1 mice; conditions: for % T/C / % T/C: toxicity: i.p.
Experimental: The antitumor activity is determined by contracted accessary testing services according to the National Cancer Institute (NCI) guidelines for natural products (Geran et al. protocols for Screening Chemical Agents and Natural Products Against Animal Tumors and other Biological Systems. Cancer Chemother. Rep. part 3, 3:7-61, 1972; Schepartz: Antitumor Screening Procedures of the National Cancer Institute. Japan J. Antibiotics 30 (Supl): 35-40, 1977.)
Alkali metal salt of FMA is tested in vivo against P338 leukemia. The test is carried out using male CD2F1 mice (wt.=18 g±3 g) in one experiment and female mice (wt, 17 g±3.0 gm) in another experiment. […]
*T/C is the ratio expressed in percent of the median survival time of the
treated group divided by the median survival time of the control group.
NCI criteria of positive (moderate) activity in P388 Leukemia is indicate
by a T/C value of 120%. A T/C value of ≥ 175% is indicative of
**DMSO = Dimethylsulfoxide; i.p = intraperitoneal route of injection.
Potassium salt of fredericamycin A was dissolved in water only.

mouse leukemia P388 = conditions: cited from earlier work
CD8F mouse mammary tumor = conditions: in vivo; cited from earlier work
L1210 leukemia = conditions: in vivo; cited from earlier work
[2] = general; precluded further toxicological and pharmacological studies; cited from earlier work
mouse leukemia L1210 = conditions: in vitro, compared with actinomycin D and adriamycin; cited from earlier work
P388 leukemic cells = conditions: in vivo; cited from earlier work
MX-1 breast xenograft = conditions: in vivo; cited from earlier work
Gram-positive bacteria = conditions: cited from earlier work
fungi = conditions: cited from earlier work
[3] = tested on: P388 ascites murine leukemia; assay: in vitro cytotoxicity, Microculture Tetrazolium Assay (MTA), P388; format: cell-based; conditions: P388, 5 days culture, FIG. 5
Source text: The assay used for determining in vitro cytotoxic activity of alkali metal salt of FMA is known as "Microculture Tetrazolium Assay" (MTA) developed by the in vitro Cancer Pharmacology R & D Laboratory at NCI-FCRF. The method utilized is a modification of Procedure by T. Mosmann et al., (J. Immunol. Meth. 65:55, 1983 and 70:257, 1984) described by M. C. Alley et al (Proc. AACR. 27:389, 1986). The testing of alkali metal salt of FMA is done using P388 acites murine leukemia as the test system at a inoculation density of about 1000 cells per well and culture duration of 5 days, with various concentration levels of alkali metal salt of FMA vs fredericamycin A. The concentration range could be from 0.1 μg to 10 μg per ml. The results are recorded as percent of control O.D. for each sample dilution.

[4] = tested on: gram positive bacteria (Bacillus subtilis); assay: antimicrobial activity, disc method, bacteria; format: cell-based; conditions: concentration 0.025 to 5 μg/ml
Experimental: (§1) Protocol for determining antimicrobial activity against Bacillus subtilis and Penicillium notatum
(§2) These were performed by Disc method, using standard assay procedures and the respective microorganism in each case. 15 μl of each sample in DMSO-H H2 O (1:1) is pipetted on to separate 0.25" absorbent paper disc and the assay is performed following routine techniques well known in the art. Zone sizes are read after incubation overnight (Bacillus subtilis) and after 4 days of incubation (Penicillium notatum) at various concentrations.

[5] = tested on: fungi (Penicillium notatum); assay: antimicrobial activity, disc method, fungi; format: cell-based; conditions: concentration 0.025 to 5 μg/ml
Experimental: as §1, §2

solubility [6] = format: physicochemical

## C/C=C/C=C/c1cc2cc3c(c(O)c2c(=O)[nH]1)C1(CC3)C(=O)c2c(O)c3c(c(O)c2C1=O)C(=O)C(OC)=CC3=O (stereo not drawn) [Na-FMA, sodium salt of fredericamycin A]
stability; water, room temperature
  stability of aqueous solution on longer standing: hydrolyzing back to fredericamycin A
hygroscopicity
  hygroscopicity: highly hygroscopic
Solubility [1]; hand shake and sonication (15 minutes)
  solubility: 500 µg/mL
pH of aqueous solution; 0.5 mg/ml in water
  pH (water): 9.2±0.5

## C/C=C/C=C/c1cc2cc3c(c(O)c2c(=O)[nH]1)C1(CC3)C(=O)c2c(O)c3c(c(O)c2C1=O)C(=O)C(OC)=CC3=O (stereo not drawn) [fredericamycin A]
Lewis lung carcinoma
  activity against Lewis lung carcinoma: ineffective
LX-1 lung xenograft
  activity against LX-1 lung xenograft: ineffective
Gram-negative bacteria
  activity against Gram-negative bacteria: no activity
C38 colon tumor
  activity against C38 colon tumor: ineffective
B16 melanoma
  activity against B16 melanoma: marginal activity
P388 Lymph. Leukemia; 0.06 mg/kg, DMSO
  % T/C: 122%
P388 Lymph. Leukemia; 0.12 mg/kg, DMSO
  % T/C: 146%
P388 Lymph. Leukemia; 0.25 mg/kg, DMSO
  % T/C: 134%
P388 Lymph. Leukemia; 0.50 mg/kg, DMSO
  % T/C: 200%
P388 Lymph. Leukemia; 1.00 mg/kg, DMSO
  % T/C: 160%
P388 Lymph. Leukemia; >1.00 mg/kg, DMSO
  % T/C: toxicity: Toxic
Mouse leukemia P388; in general, cells not specified
  cytotoxicity: very cytotoxic
Mouse leukemia P388; in vitro, compared with actinomycin D and adriamycin
  ED50 against P388: compared closely to the reported values for actinomycin D and adriamycin
CD8F mouse mammary tumor
  reducing the median tumor weight: effective
L1210 leukemia
  activity against L1210 leukemia: ineffective
Solubility [1]
  solubility in water, in words: almost insoluble
Solubility [1]; listed as FMA
  solubility in water, in words: virtually insoluble
[2]
  solubility: poor solubility
Mouse leukemia L1210
  ED50 against L1210: compared closely to the reported values for actinomycin D and adriamycin
P388 leukemic cells
  extending the life span of mice inoculated with P388: effective
MX-1 breast xenograft
  activity against MX-1 breast xenograft: ineffective
Gram-positive bacteria
  activity against Gram-positive bacteria: good activity
fungi
  activity against fungi: good activity

## C/C=C/C=C/c1cc2cc3c(c(O)c2c(=O)[nH]1)C1(CC3)C(=O)c2c(O)c3c(c(O)c2C1=O)C(=O)C(OC)=CC3=O (stereo not drawn) [KFMA, potassium salt of fredericamycin A]
[3]
  in vitro cytotoxic activity as compared to that of FMA: equal or better
[4]
  zone size: 9.5 mm
stability; 0° C./dark
  stability of DMSO solution (anhydrous): several days
stability; anhydrous, room temp.
  stability of anhydrous salt: stable
stability; anhydrous, room temperature
  stability of anhydrous salt, duration in words: stable for extended period of time
stability; high vacuum, 4 hrs
  temperature safely heated to with no decomposition: up to 60 °C
stability; in presence of moisture, acid
  hydrolysis to fredericamycin A: Easily hydrolysable
stability; room temp, 4 hrs
  stability of DMSO solution (anhydrous): fairly stable
stability; sealed under nitrogen, anhydrous, amber container, 0° C. over silica gel
  storage stability: stable for several months
stability; water, about 1.0 mg/ml, room temperature
  stability of aqueous solution: stable for almost an hour
P388 Lymph. Leukemia; 1 mg/kg level
  T/C value: 178%
P388 Lymph. Leukemia; Expt #1, 0.125 mg/kg, water
  % T/C: 119%
P388 Lymph. Leukemia; Expt #1, 0.25 mg/kg, water
  % T/C: 119%
P388 Lymph. Leukemia; Expt #1, 0.50 mg/kg, water
  % T/C: 153%
P388 Lymph. Leukemia; Expt #1, 1.00 mg/kg, water
  % T/C: 178%
P388 Lymph. Leukemia; Expt #1, 2.00 mg/kg, water
  % T/C: toxicity: Toxic
P388 Lymph. Leukemia; Expt #1, .063 mg/kg, water
  % T/C: 110%
P388 Lymph. Leukemia; Expt #2, 0.125 mg/kg, water
  % T/C: 120%
P388 Lymph. Leukemia; Expt #2, 0.25 mg/kg, water
  % T/C: 132%
P388 Lymph. Leukemia; Expt #2, 0.50 mg/kg, water
  % T/C: 160%
P388 Lymph. Leukemia; Expt #2, 1.00 mg/kg, water
  % T/C: 175%
P388 Lymph. Leukemia; Expt #2, .063 mg/kg, water
  % T/C: 112%
P388 Lymph. Leukemia; all experiments performed
  activity against P388 leukemia, in words: significant activity
P388 Lymph. Leukemia; male vs female mice
  differences between male and female mice: no differences observed
[5]
  zone size: 9.5 mm
Solubility [1]; Table 1
  solubility: 1000 µg/mL
Solubility [1]; solubility studies in water
  solubility: ~1000 µg/mL
pH of aqueous solution; Table 1
  pH (H2O): 8.9 ± 0.2
pH of aqueous solution; about 1.0 mg/ml in water
  pH of aqueous solution: 8.65
Solubility [6]
  solubility in chloroform-methanol-acetic acid (87:3:3) and methanol: Soluble
  solubility in dimethylacetamide, dimethylformamide, pyridine: Readily Soluble
  solubility in ethylacetate, acetonitrile and chloroform: Sparingly soluble
  solubility in hexanes, ether, acetone, benzene and carbon tetra chloride: Insoluble
Solubility [6]; Readily Soluble
  solubility in dimethyl sulfoxide: 8 mg/1.5 ml
Solubility [6]; dmso-saline 5:95, organic solvent or mixture, read-out: solubility in dimethylsulfoxide-saline (5:95)
  solubility: 1000 µg/mL
Solubility [6]; dmso-saline 10:90, organic solvent or mixture, solution is transparent blue, read-out: solubility in dimethylsulfoxide-saline (10:90)
  solubility: 1000 µg/mL
Solubility [6]; dmso-water 1:1, organic solvent or mixture, Readily Soluble, read-out: solubility in dimethylsulfoxide-water (1:1)
  solubility: 3000 µg/mL
Solubility [6]; dmso-water 5:95, organic solvent or mixture, read-out: solubility in dimethylsulfoxide-water (5:95)
  solubility: 1500 µg/mL
Solubility [6]; water, hand shaking 1 minute, vortexing 3 minutes, read-out: solubility in water
  solubility: ~1000 µg/mL
